Source: ChEMBL document CHEMBL1156221, “A-ring modifications on the triazafluorenone core structure and their mGluR1 antagonist properties” (Bioorg Med Chem Lett, 2010)

Legend:
[1] = molecular target: Metabotropic glutamate receptor 1 (Homo sapiens, UniProt Q13255); assay: Antagonist activity at human mGluR1; format: functional
[2] = molecular target: Metabotropic glutamate receptor 5 (Homo sapiens, UniProt P41594); assay: Antagonist activity at human mGluR5; format: functional
[3] = Drug level in rat brain at 10 mg/kg, po after 6 hrs; format: ADME, organism-based; set-up: dose 10 mg/kg, route oral; conditions: read-out: Drug uptake
[4] = AUC in rat at 10 mg/kg, po by LC/API-MS/MS; format: ADME, organism-based; set-up: dose 10 mg/kg, route oral; conditions: plasma
in vivo = conditions: rat, brain/plasma, po, 10 mg/kg
Description: Ratio of drug level in brain to plasma in rat at 10 mg/kg, po

[5] = molecular target: Metabotropic glutamate receptor 1 (Rattus norvegicus); assay: Antagonist activity at rat mGluR1
[6] = molecular target: Metabotropic glutamate receptor 1 (Rattus norvegicus, UniProt P23385); assay: Antagonist activity at rat mGluR1; format: functional
Sequence of Metabotropic glutamate receptor 1 (Rattus norvegicus, UniProt P23385) (P23385 whole entry, looked up): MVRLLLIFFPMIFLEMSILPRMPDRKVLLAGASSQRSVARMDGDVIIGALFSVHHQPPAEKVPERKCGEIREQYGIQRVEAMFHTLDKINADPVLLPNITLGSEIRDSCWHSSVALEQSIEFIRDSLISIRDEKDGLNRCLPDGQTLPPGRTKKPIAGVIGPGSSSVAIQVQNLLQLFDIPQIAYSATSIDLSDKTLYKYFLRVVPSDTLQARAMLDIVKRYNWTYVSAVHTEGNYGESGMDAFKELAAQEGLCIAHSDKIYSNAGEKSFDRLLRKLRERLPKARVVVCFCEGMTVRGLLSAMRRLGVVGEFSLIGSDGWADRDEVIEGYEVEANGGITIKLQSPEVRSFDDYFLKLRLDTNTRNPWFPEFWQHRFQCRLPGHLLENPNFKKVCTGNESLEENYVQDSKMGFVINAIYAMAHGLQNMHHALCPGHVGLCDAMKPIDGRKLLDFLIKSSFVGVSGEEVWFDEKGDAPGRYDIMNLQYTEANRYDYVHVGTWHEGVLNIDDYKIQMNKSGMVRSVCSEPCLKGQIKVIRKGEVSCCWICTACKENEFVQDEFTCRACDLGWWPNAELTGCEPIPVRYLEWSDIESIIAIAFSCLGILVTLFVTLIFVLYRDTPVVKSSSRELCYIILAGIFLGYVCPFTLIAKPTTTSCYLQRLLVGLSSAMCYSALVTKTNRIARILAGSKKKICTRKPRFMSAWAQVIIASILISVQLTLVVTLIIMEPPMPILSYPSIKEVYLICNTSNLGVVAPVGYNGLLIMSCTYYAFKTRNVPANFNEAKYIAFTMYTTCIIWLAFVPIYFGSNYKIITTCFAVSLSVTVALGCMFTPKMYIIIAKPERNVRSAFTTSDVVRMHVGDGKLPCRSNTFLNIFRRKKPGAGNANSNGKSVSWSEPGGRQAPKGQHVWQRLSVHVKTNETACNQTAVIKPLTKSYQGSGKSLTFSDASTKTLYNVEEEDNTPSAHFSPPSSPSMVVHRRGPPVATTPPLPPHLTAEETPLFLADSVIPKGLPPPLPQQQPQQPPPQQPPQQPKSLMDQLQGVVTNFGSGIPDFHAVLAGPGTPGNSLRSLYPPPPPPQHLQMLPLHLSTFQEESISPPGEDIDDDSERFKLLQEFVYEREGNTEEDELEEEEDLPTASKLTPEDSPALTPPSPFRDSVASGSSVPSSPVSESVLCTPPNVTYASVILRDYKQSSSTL

Sequence of Metabotropic glutamate receptor 1 (Homo sapiens, UniProt Q13255) (Q13255 whole entry): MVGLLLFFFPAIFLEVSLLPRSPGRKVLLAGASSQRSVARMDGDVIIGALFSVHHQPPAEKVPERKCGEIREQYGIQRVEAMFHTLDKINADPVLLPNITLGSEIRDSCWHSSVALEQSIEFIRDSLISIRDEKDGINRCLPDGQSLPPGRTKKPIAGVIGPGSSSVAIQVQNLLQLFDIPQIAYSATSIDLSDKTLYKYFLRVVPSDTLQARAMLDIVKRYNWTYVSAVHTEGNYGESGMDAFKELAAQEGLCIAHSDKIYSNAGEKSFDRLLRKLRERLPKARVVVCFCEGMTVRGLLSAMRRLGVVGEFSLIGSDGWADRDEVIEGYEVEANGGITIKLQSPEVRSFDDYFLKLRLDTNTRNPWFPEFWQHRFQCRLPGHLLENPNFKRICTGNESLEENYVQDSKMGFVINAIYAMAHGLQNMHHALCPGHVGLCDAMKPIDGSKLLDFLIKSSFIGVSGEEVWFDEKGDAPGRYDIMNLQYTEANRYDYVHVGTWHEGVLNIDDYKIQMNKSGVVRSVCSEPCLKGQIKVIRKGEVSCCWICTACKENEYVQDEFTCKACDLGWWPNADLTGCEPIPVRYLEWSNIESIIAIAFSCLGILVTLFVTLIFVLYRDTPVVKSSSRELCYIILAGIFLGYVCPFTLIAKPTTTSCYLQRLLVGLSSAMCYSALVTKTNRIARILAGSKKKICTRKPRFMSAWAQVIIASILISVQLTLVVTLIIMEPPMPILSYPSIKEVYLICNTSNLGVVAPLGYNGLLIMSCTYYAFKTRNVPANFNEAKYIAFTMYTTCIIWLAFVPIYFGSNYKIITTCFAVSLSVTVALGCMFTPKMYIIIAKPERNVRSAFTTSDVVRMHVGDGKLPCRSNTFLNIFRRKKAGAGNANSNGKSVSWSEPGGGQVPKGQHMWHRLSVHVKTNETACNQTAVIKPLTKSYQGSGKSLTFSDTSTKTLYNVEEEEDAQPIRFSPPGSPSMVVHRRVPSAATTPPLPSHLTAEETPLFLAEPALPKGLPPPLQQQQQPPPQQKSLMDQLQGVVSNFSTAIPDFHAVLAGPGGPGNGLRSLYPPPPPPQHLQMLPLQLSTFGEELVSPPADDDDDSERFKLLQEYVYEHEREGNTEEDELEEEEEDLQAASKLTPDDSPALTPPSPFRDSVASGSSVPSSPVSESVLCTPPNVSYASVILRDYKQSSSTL
Sequence of Metabotropic glutamate receptor 5 (P41594 whole entry): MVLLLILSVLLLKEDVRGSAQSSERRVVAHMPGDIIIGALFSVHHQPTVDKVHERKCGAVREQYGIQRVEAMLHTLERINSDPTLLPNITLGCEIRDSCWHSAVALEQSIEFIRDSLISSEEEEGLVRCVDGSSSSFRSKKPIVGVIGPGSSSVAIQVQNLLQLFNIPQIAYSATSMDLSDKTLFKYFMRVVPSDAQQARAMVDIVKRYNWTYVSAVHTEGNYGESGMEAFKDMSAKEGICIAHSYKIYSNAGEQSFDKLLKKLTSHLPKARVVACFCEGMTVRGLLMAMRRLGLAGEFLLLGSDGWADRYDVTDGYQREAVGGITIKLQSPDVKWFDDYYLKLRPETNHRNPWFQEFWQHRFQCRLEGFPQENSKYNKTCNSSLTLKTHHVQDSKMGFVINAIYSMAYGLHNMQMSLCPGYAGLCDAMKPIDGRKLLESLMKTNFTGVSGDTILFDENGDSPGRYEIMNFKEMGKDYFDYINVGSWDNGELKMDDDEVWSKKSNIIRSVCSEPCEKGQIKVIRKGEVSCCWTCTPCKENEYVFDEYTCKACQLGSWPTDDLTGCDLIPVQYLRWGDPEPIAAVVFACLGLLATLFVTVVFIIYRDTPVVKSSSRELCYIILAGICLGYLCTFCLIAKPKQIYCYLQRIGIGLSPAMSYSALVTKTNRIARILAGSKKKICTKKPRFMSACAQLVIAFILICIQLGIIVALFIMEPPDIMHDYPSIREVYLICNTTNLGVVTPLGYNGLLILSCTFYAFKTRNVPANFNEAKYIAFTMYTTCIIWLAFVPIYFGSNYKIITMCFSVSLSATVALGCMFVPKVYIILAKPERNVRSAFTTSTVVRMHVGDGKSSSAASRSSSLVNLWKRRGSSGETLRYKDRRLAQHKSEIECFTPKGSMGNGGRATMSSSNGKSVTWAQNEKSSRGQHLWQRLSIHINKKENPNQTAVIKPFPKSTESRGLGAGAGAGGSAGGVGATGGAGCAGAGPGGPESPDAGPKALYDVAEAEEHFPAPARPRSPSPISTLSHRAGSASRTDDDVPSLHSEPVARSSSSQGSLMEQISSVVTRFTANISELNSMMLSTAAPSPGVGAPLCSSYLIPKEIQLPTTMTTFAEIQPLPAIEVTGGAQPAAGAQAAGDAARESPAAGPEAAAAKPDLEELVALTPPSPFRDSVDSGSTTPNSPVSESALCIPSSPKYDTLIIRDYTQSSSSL

| Structure (SMILES) | IC50 [1] | IC50 [2] | concentration at 6 h [3] | AUC [4] | Kp (in vivo) | Ki [5] | Ki [6] |
| --- | --- | --- | --- | --- | --- | --- | --- |
| Cc1nc(N)c2c(n1)sc1c(=O)n(-c3ccccc3)cnc12 | 16 nM | > 3000 nM |  |  |  |  |  |
| COc1ccc(-n2cnc3c(sc4nc(C)nc(N)c43)c2=O)cc1 | 188 nM | > 3000 nM |  |  |  |  |  |
| Cc1nc(N)c2c(n1)sc1c(=O)n(-c3ccc(F)cc3)cnc12 | 68 nM | > 3000 nM |  |  |  |  |  |
| Cc1ccc(-n2cnc3c(sc4nc(-n5cccc5)nc(N)c43)c2=O)cc1 | > 1000 nM | > 3000 nM |  |  |  |  |  |
| Cc1ccc(-n2cnc3c(sc4[nH]c(=O)nc(N)c43)c2=O)cc1 | > 1000 nM | > 3000 nM |  |  |  |  |  |
| COc1ccc(-n2cnc3c(sc4nccc(N(C)C)c43)c2=O)cc1 |  | > 3000 nM |  |  |  |  |  |

Now from value to compound:

| IC50 [1] | IC50 [2] | concentration at 6 h [3] | AUC [4] | Kp (in vivo) | Ki [5] | Ki [6] | Structure (SMILES) |
| --- | --- | --- | --- | --- | --- | --- | --- |
| 11 nM | > 3000 nM |  |  |  |  |  | Cc1nc(N)c2c(n1)sc1c(=O)n(-c3ccc(Cl)cc3)cnc12 |
|  | > 3000 nM | 100 ng/g | 965 ng·h/mL | 0.9 |  |  | Cc1ccc(-n2cnc3c(sc4nc(N)nc(N)c43)c2=O)cc1 |
| > 1000 nM | > 3000 nM |  |  |  |  |  | CNc1nc(N)c2c(n1)sc1c(=O)n(-c3ccc(C)cc3)cnc12 |
| 3.1 nM | > 3000 nM |  |  |  |  |  | Cc1ccc(-n2cnc3c(sc4nc(S)nc(N)c43)c2=O)cc1 |
| 27 nM | > 3000 nM | 29 ng/g | 2110 ng·h/mL | 0.2 | 115 nM | 115 nM | Cc1ccc(-n2cnc3c(sc4nc(C)nc(N)c43)c2=O)cc1 |
| > 1000 nM | > 3000 nM |  |  |  |  |  | Cc1ccc(-n2cnc3c(sc4nc(C(F)(F)F)nc(N)c43)c2=O)cc1 |
| 326 nM | > 3000 nM |  |  |  |  |  | Cc1ccc(-n2cnc3c(sc4nc(C5CC5)nc(N)c43)c2=O)cc1 |
